Measurements: patent US20260166039A1 (SCHRÖDINGER, INC., priority 2022, published 2026)

These molecules were tested against T1, Wee1 kinase domain (Homo sapiens, UniProt P30291) (assay: Wee1 Kinase Biochemical Assay (ADP-Glo)). Conditions: Wee1 kinase domain, 15 uM ATP, ADP-Glo.
T1 construct: Wee1 kinase domain was purchased from Carna (catalog #05-177); purchased Carna 05-177
Method in brief: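 Carna Wee1 kinase domain at 1 nM, with 15 uM ATP and 2 ng/mL poly(Lys,Tyr 4:1) substrate in 40 mM Tris-HCl, 20 mM MgCl2, 0.1 mg/mL BSA, 2 mM DTT, run 4 h at 25° C. ADP formation read by ADP-Glo luminescence. Percent inhibition normalised to DMSO and saturating-inhibitor controls.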

T1 sequence (P30291 299-569 limits assumed): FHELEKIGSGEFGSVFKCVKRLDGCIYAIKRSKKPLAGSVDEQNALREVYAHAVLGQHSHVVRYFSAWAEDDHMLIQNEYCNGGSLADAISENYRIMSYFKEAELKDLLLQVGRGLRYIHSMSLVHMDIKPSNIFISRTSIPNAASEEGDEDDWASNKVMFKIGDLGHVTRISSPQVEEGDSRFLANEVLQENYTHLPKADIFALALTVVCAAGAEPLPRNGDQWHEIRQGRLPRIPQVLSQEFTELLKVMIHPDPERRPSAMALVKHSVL

Structure (SMILES) | IC50 [nM]
CNCc1cccc(N2c3nc(Nc4ccc(N5C[C@H]6C[C@@H]5CO6)cc4)ncc3[C@]3(C)COC(C)(C)C[C@H]23)n1 (single isomer, unassigned) [Example 43] | 10 to 100
CNCc1cccc(N2c3nc(Nc4ccc(N5CCC(F)(F)C5)cc4)ncc3[C@]3(C)COC(C)(C)C[C@H]23)n1 (single isomer, unassigned) [Example 21] | 100 to 1000
CNCc1cccc(N2c3nc(Nc4ccc5c(c4)C(=O)N(C)CC5(C)C)ncc3[C@]3(C)COC(C)(C)C[C@H]23)n1 (single isomer, unassigned) [Example 91] | 100 to 1000
C[C@H]1COC(=O)N1c1cccc(N2c3nc(Nc4ccc(OC5CCN(C)CC5)nc4)ncc3[C@]3(C)COC(C)(C)C[C@H]23)n1 (single isomer, unassigned) [Example 334] | 100 to 1000
CN1CC[C@](C)(c2ccc(Nc3ncc4c(n3)N(c3cccc(N=S(C)(C)=O)n3)[C@H]3CC(C)(C)OC[C@@]43C)cc2)C1 (single isomer, unassigned) [Example 167] | 10 to 100
CC1(C)C[C@H]2N(c3cccc(N=S(C)(C)=O)n3)c3nc(Nc4ncccc4F)ncc3[C@@]2(C)CO1 (single isomer, unassigned) [Example 368] | 10 to 100
Cc1cc(Nc2ncc3c(n2)N(c2cccc(C(C)(C)O)n2)[C@H]2CC(C)(C)OC[C@@]32C)ccc1N1CCN(C)CC1 (single isomer, unassigned) [Example 10] | 10 to 100
Cc1cc(Nc2ncc3c(n2)N(c2cccc(N=S(C)(C)=O)n2)[C@H]2CC(C)(C)OC[C@@]32C)ccc1[C@H]1COCCN1 (single isomer, unassigned) [Example 115] | 10 to 100
Cc1cc(Nc2ncc3c(n2)N(c2cccc(N4C(=O)OC[C@@H]4C)n2)[C@H]2CC(C)(C)OC[C@@]32C)ccc1N1C[C@H]2C[C@@H]1CN2C (single isomer, unassigned) [Example 288] | 10 to 100
C[C@H]1COC(=O)N1c1cccc(N2c3nc(Nc4ccc([C@H]5CCN(C)C5)cc4)ncc3[C@]3(C)COC(C)(C)C[C@H]23)n1 (single isomer, unassigned) [Example 307] | < 10
CNCc1cccc(N2c3nc(NC45CC(C4)C5)ncc3[C@@]3(C)COC(C)(C)C[C@@H]23)n1 [Example 89, (4bR,8aR)-N-(bicyclo[1.1.1]pentan-1-yl)-4b,7,7-trimethyl-9-(6-((methylamino)methyl)pyridin-2-yl)-4b,5,7,8,8a,9-hexahydropyrano[3′,4′:4,5]pyrrolo[2,3-d]pyrimidin-2-amine] | ≥ 1000
CN1CC[C@H](Oc2ccc(Nc3ncc4c(n3)N(c3cccc(N=S(C)(C)=O)n3)[C@H]3CC(C)(C)OC[C@@]43C)cc2)C1 (single isomer, unassigned) [Example 158] | 100 to 1000
C[C@H]1COC(=O)N1c1cccc(N2c3nc(Nc4ccc([C@@H]5CCNC5)nc4)ncc3[C@]3(C)COC(C)(C)C[C@H]23)n1 (single isomer, unassigned) [Example 256] | 10 to 100
CNCc1cccc(N2c3nc(Nc4ccc(N5CCOCC5)cc4)ncc3[C@]3(C)COC(C)(C)C[C@H]23)n1 (single isomer, unassigned) [Example 6] | 10 to 100
CC1(C)C[C@@H]2N(c3cccc(N=S(C)(C)=O)n3)c3nc(Nc4ccc([C@H]5CCCN5)nc4)ncc3[C@]2(C)CO1 (single isomer, unassigned) [Example 211] | 10 to 100
C[C@H]1COC(=O)N1c1cccc(N2c3nc(Nc4ccc([C@H]5CCNC5)nc4)ncc3[C@]3(C)COC(C)(C)C[C@H]23)n1 (single isomer, unassigned) [Example 258] | 100 to 1000
CN1CC(n2cc(Nc3ncc4c(n3)N(c3cccc(N=S(C)(C)=O)n3)[C@H]3CC(C)(C)OC[C@@]43C)cn2)C1 (single isomer, unassigned) [Example 208] | 10 to 100
C[C@H]1COC(=O)N1c1cccc(N2c3nc(Nc4ccc(N5CCN(C)CC5)cc4)ncc3[C@@]3(C)COC(C)(C)C[C@@H]23)n1 (single isomer, unassigned) [Example 234] | 10 to 100
CC1(C)C[C@@H]2N(c3cccc(N=S(C)(C)=O)n3)c3nc(Nc4ccc(C5CNC5)c(F)c4)ncc3[C@]2(C)CO1 (single isomer, unassigned) [Example 189] | 100 to 1000
CN1CCC(n2cc(Nc3ncc4c(n3)N(c3cccc(N=S(C)(C)=O)n3)[C@H]3CC(C)(C)OC[C@@]43C)cn2)C1 (stereo partly drawn) [Example 195, dimethyl((6-((4bS,8aS)-4b,7,7-trimethyl-2-((1-((R)-1-methylpyrrolidin-3-yl)-1H-pyrazol-4-yl)amino)-4b,7,8,8a-tetrahydropyrano[3′,4′:4,5]pyrrolo[2,3-d]pyrimidin-9(5H)-yl)pyridin-2-yl)imino)-16-sulfanone] | 100 to 1000

Same assay, conditions: class symbols; 1 nM Wee1 enzyme, 15 uM ATP, 4 hours at 25° C.

Structure (SMILES) | IC50 [nM]
CN1C[C@@H]2C[C@H]1CN2c1ccc(Nc2ncc3c(n2)N(c2cccc(N4CCOC4=O)n2)[C@H]2CC(C)(C)OC[C@@]32C)cc1F [Example 677, 3-(6-((4bS,8aS)-2-((3-fluoro-4-((1S,4S)-5-methyl-2,5-diazabicyclo[2.2.1]heptan-2-yl)phenyl)amino)-4b,7,7-trimethyl-4b,7,8,8a-tetrahydropyrano[3′,4′:4,5]pyrrolo[2,3-d]pyrimidin-9(5H)-yl)pyridin-2-yl)oxazolidin-2-one] | 10 to 100
CC1(C)C[C@@H]2N(c3cccc(N4CCOC4=O)n3)c3nc(Nc4ccc([C@H]5CNCC5(F)F)cc4)ncc3[C@]2(C)CO1 [Example 683, 3-(6-((4bS,8aS)-2-((4-((S)-4,4-difluoropyrrolidin-3-yl)phenyl)amino)-4b,7,7-trimethyl-4b,7,8,8a-tetrahydropyrano[3′,4′:4,5]pyrrolo[2,3-d]pyrimidin-9(5H)-yl)pyridin-2-yl)oxazolidin-2-one] | 100 to 1000
CN1C[C@H]2C[C@@H]1CN2c1ccc(Nc2ncc3c(n2)N(c2ccccn2)[C@@H]2CC(C)(C)OC[C@]32C)cc1 [Example 801, (4bR,8aR)-4b,7,7-trimethyl-N-(4-((1R,4R)-5-methyl-2,5-diazabicyclo[2.2.1]heptan-2-yl)phenyl)-9-(pyridin-2-yl)-4b,5,7,8,8a,9-hexahydropyrano[3′,4′:4,5]pyrrolo[2,3-d]pyrimidin-2-amine] | < 10
CN[C@H](C)c1cc(C)nc(N2c3nc(Nc4ccc(N5CCOCC5)cc4)ncc3[C@@]3(C)COC(C)(C)C[C@@H]23)c1 (single isomer, unassigned) [Example 557] | < 10
CC1(C)C[C@H]2N(c3cccc(N=S(C)(C)=O)n3)c3nc(NC(=O)c4ccccn4)ncc3[C@@]2(C)CO1 (single isomer, unassigned) [Example 407] | 10 to 100
CN1C[C@@H]2C[C@H]1CN2c1ccc(Nc2ncc3c(n2)N(c2cccc(N4C(=O)CCC4(C)C)n2)[C@@H]2CC(C)(C)OC[C@]32C)cc1 [Example 798, 5,5-dimethyl-1-(6-((4bR,8aR)-4b,7,7-trimethyl-2-((4-((1S,4S)-5-methyl-2,5-diazabicyclo[2.2.1]heptan-2-yl)phenyl)amino)-4b,7,8,8a-tetrahydropyrano[3′,4′:4,5]pyrrolo[2,3-d]pyrimidin-9(5H)-yl)pyridin-2-yl)pyrrolidin-2-one] | < 10
CN1C[C@H]2C[C@@H]1CN2c1ccc(Nc2ncc3c(n2)N(c2cccc(N4CCCC4=O)n2)[C@H]2CC(C)(C)OC[C@@]32C)cc1F [Example 639, 1-(6-((4bS,8aS)-2-((3-fluoro-4-((1R,4R)-5-methyl-2,5-diazabicyclo[2.2.1]heptan-2-yl)phenyl)amino)-4b,7,7-trimethyl-4b,7,8,8a-tetrahydropyrano[3′,4′:4,5]pyrrolo[2,3-d]pyrimidin-9(5H)-yl)pyridin-2-yl)pyrrolidin-2-one] | 10 to 100
CN1CCN(c2cccc(N3c4nc(Nc5ccc(N6CCOCC6)cc5)ncc4[C@]4(C)COC(C)(C)C[C@H]34)n2)CC1 (single isomer, unassigned) [Example 536] | 10 to 100
Cc1cc(Nc2ncc3c(n2)N(c2cccc([C@@H]4CCCN4)n2)[C@H]2CC(C)(C)OC[C@@]32C)ccc1N1CCOCC1 (single isomer, unassigned) [Example 530] | 10 to 100
CN1CC[C@@H]2CN(c3ccc(Nc4ncc5c(n4)N(c4cccc(C(C)(C)O)n4)[C@H]4CC(C)(C)OC[C@@]54C)cc3)C[C@@H]21 (single isomer, unassigned) [Example 438] | 100 to 1000
CC1(C)C[C@@H]2N(c3cccc(N4CCOC4=O)n3)c3nc(Nc4ccc([C@@H]5CNCC5(F)F)cc4)ncc3[C@]2(C)CO1 [Example 681, 3-(6-((4bS,8aS)-2-((4-((R)-4,4-difluoropyrrolidin-3-yl)phenyl)amino)-4b,7,7-trimethyl-4b,7,8,8a-tetrahydropyrano[3′,4′:4,5]pyrrolo[2,3-d]pyrimidin-9(5H)-yl)pyridin-2-yl)oxazolidin-2-one] | 10 to 100
Cc1cc(Nc2ncc3c(n2)N(c2cccc(C(C)(C)O)n2)[C@H]2CC(C)(C)OC[C@@]32C)ccc1N1C[C@H]2C[C@@H]1CN2C (single isomer, unassigned) [Example 426] | 10 to 100
CN1[C@@H]2C[C@H]1CN(c1ccc(Nc3ncc4c(n3)N(c3cccc(N5CCOC5=O)n3)[C@H]3CC(C)(C)OC[C@@]43C)cc1)C2 [Example 701, 3-(6-((4bS,8aS)-4b,7,7-trimethyl-2-((4-((1R,5S)-6-methyl-3,6-diazabicyclo[3.1.1]heptan-3-yl)phenyl)amino)-4b,7,8,8a-tetrahydropyrano[3′,4′:4,5]pyrrolo[2,3-d]pyrimidin-9(5H)-yl)pyridin-2-yl)oxazolidin-2-one] | 10 to 100
C[C@H]1CCC(=O)N1c1cccc(N2c3nc(Nc4ccc(N5CCN(C)CC5)cc4)ncc3[C@]3(C)COC(C)(C)C[C@H]23)n1 (single isomer, unassigned) [Example 582] | 100 to 1000
CC1(C)C[C@@H]2N(c3ccc4c(n3)[C@](C)(N)CC4)c3nc(Nc4ccc(N5CCOCC5)cc4)ncc3[C@]2(C)CO1 (single isomer, unassigned) [Example 563] | 100 to 1000
